In US6825348B2, “Antiviral compounds” (Academia Sinica, priority 2002, dated 2004):
≈ marks a conversion by molar mass, not a printed value. Where two headings read alike, the source gives them in different places.

How the values were obtained:
[1] = tested on: thymidine kinase-positive (TK+) varicella-zoster virus (YS); assay: Inhibition of TK+ VZV cytopathogenicity in Vero cell culture; type: cell-based
[2] = tested on: human cytomegalovirus (AD-169); assay: Inhibition of HCMV cytopathogenicity in Vero cell culture; type: cell-based; conditions: Human betaherpesvirus 5, AD169; Vero cell culture; 50% inhibition of cytopathogenicity; for 1:1 mixtures IC50 refers to known antiviral drugs; read-out: IC50 HCMV (AD-169)
[3] = tested on: Vero cells; conditions: African green monkey
[4] = tested on: moloney murine sarcoma virus (MSV); assay: Inhibition of MSV cytopathogenicity in CEM cells (cell-protection assay); type: cell-based; conditions: Moloney murine sarcoma virus, CCRF-CEM; CEM cells, average of duplicates; read-out: IC50 MSV
[5] = Solubility in water (phosphate buffer, UV absorbance); conditions: phosphate buffer, pH 6.8, aqueous buffer, thermodynamic from solid
[6] = tested on: MT4 cells; assay: Toxicity toward MT4 cells
[7] = tested on: CEM cells; assay: Toxicity toward CEM cells
[8] = tested on: thymidine kinase-deficient (TK−) varicella-zoster virus (YS/R); assay: microbe, parasite or virus in culture; type: cell-based; conditions: Human alphaherpesvirus 3, Vero, read-out: IC50 TK−VZV (YS/R)
[9] = tested on: HeLa cells; conditions: human
[10] = tested on: HIV-2 (LAV-2); assay: Inhibition of HIV-2 cytopathogenicity in MT4 cells; type: cell-based, human immunodeficiency virus; conditions: Human immunodeficiency virus 2; MT4 cells, average of duplicates; read-out: IC50 HIV-2 (LAV-2)
[11] = Lipophilicity, 1-octanol/water partition coefficient; conditions: 1-octanol/water (0.10 M phosphate buffer)
[12] = tested on: herpes simplex type 1 virus (HSV-1) (KOS); assay: Inhibition of HSV-1 cytopathogenicity in Vero cell culture; type: cell-based; conditions: Human alphaherpesvirus 1, Vero, read-out: IC50 HSV-1 (KOS)
[13] = tested on: HIV-1 (IIIB); assay: microbe, parasite or virus in culture; type: cell-based; conditions: Human immunodeficiency virus 1, IIIB; MT4 cells, average of duplicates; read-out: IC50 HIV-1 (IIIB)
[14] = tested on: Vero cell thymidine kinase; assay: Phosphorylation of nucleosides by Vero cell thymidine kinase; type: biochemical; conditions: for Km: apparent Km, 37° C., pH 7.5; for rel. Vmax, Vero cell thymidine kinase: relative to thymidine = 1.0 × 10^2
[15] = target: HSV thymidine kinase (Human herpesvirus 1, UniProt P0DTH5); assay: Phosphorylation of nucleosides by HSV thymidine kinase; type: biochemical
[16] = tested on: HSV-1 (KOS); assay: Anti-HSV-1 activity in vivo, HSV-1-induced mortality in NMRI mice; conditions: 6 days; for mean day of animal death / mean day of symptom initiation: terminated day 21; for protection against HSV-induced mortality: 150 mg/kg dose level i.p.; for responders at 100 mg/kg / responders at 150 mg/kg / responders at 250 mg/kg: Human alphaherpesvirus 1, ip, 504 h
[17] = target: T1, calf mucosal adenosine deaminase (ADA, EC 3.5.4.4) (Bos taurus, UniProt P56658); assay: Substrate activity and competitive inhibition of adenosine deaminase; type: biochemical; conditions: for type of ADA inhibition in words: ara-A used as substrate; for rel. Vmax: compound as ADA substrate, relative to ara A 3 = 1.0; for Ki: inhibition of ADA with ara-A 3 as substrate
T1 sequence (P56658 1-363): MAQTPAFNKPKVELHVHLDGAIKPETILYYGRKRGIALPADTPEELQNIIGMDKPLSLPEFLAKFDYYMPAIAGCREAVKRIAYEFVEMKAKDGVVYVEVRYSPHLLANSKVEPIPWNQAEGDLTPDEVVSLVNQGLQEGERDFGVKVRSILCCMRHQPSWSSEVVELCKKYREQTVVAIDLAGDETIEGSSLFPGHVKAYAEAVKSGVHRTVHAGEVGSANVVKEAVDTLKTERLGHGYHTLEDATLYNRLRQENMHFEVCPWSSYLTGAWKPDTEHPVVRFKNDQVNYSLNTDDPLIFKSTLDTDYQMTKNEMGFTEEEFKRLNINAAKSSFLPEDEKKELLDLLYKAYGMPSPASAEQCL

[18] = LD50 and toxicity in mice, intraperitoneal
[19] = 100 mg/kg/day i.p., read-out: percentage of HSV-1-infected mice alive at day 21 postinfection
[20] = 100 mg/kg/day i.p., read-out: percentage of HSV-1-infected mice without symptoms at day 21 postinfection
[21] = 150 mg/kg/day i.p., read-out: percentage of HSV-1-infected mice alive at day 21 postinfection
[22] = 150 mg/kg/day i.p., read-out: percentage of HSV-1-infected mice without symptoms at day 21 postinfection
[23] = 250 mg/kg/day i.p., read-out: percentage of HSV-1-infected mice alive at day 21 postinfection
[24] = 250 mg/kg/day i.p., read-out: percentage of HSV-1-infected mice without symptoms at day 21 postinfection
[25] = mixture with acyclovir 2 (w/w=1:1)

HSV thymidine kinase, sequence (P0DTH5 whole entry, looked up): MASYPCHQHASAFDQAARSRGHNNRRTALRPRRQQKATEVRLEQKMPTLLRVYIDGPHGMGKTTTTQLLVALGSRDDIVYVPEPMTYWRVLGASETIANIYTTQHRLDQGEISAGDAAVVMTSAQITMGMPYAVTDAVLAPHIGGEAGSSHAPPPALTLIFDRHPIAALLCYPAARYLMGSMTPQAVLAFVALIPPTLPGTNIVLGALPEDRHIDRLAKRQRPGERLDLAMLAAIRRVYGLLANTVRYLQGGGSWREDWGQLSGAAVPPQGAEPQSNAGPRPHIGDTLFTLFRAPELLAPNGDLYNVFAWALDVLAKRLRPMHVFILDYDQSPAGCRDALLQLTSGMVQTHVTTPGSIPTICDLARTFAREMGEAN

## Nc1nc2c(ncn2CCOCP(=O)(O)O)c(=O)[nH]1 [PMEG 27, 9-[2-(phosphonomethoxy)ethyl]guanine, reference compound]
[1]
  IC50 TK+VZV (YS): 0.040 µg/mL (≈ 0.138 µM)
[2]
  IC50: 0.35 µg/mL (≈ 1.21 µM)
[3]
  Vero cell, concentration causing microscopically visible change or disruption in about 50% of the cell sheet: 7.0 µg/mL
[4]
  IC50: 0.19 µg/mL (≈ 0.657 µM)
[5]
  solubility at 20 h: 360 µg/mL (≈ 1240 µM)
[6]
  MT4 cell, concentration reducing the number of viable uninfected cells by 50%: 16 µg/mL
[7]
  CEM cell, concentration reducing the number of viable uninfected cells by 50%: 12 µg/mL
[8]
  IC50: 0.06 µg/mL (≈ 0.207 µM)
[9]
  HeLa cell, concentration causing microscopically visible change or disruption in about 50% of the cell sheet: 9.1 µg/mL
[10]
  IC50: 18 µg/mL (≈ 62.2 µM)
[11]
  logP at […]: 0.14
[12]
  IC50: 4.6 µg/mL (≈ 15.9 µM)
[13]
  IC50: 16 µg/mL (≈ 55.3 µM)

## Nc1nc2c(ncn2COCCO)c(=O)[nH]1 [acyclovir 2, 9-[(2-hydroxyethoxy)methyl]guanine, reference compound]
[2]
  IC50: 32 µg/mL (≈ 142 µM)
[3]
  Vero cell, concentration causing microscopically visible change or disruption in about 50% of the cell sheet: 269 µg/mL
[5]
  solubility at 20 h: 400 µg/mL (≈ 1780 µM)
[14]
  Km: 22 mM
  rel. Vmax, Vero cell thymidine kinase: <3.0
[9]
  HeLa cell, concentration causing microscopically visible change or disruption in about 50% of the cell sheet: 259 µg/mL
[11]
  logP at […]: -0.48
[15]
  rel. Vmax, HSV thymidine kinase: 39.2
[16]; 100 mg/kg/day i.p.
  mean day of animal death: 18.9 ± 2.1 days
  mean day of symptom initiation: 15.6 ± 1.6 days
[16]
  protection against HSV-induced mortality: full protection
[16]; 150 mg/kg/day i.p.
  mean day of animal death: >21 days
  mean day of symptom initiation: 19.1 ± 1.3 days
[16]; 250 mg/kg/day i.p.
  mean day of animal death: >21 days
  mean day of symptom initiation: >21 days
[16]; [19]
  responders at 100 mg/kg: 80%
[16]; [20]
  responders at 100 mg/kg: 65%
[16]; [21]
  responders at 150 mg/kg: 100%
[16]; [22]
  responders at 150 mg/kg: 86%
[16]; [23]
  responders at 250 mg/kg: 100%
[16]; [24]
  responders at 250 mg/kg: 100%
[12]
  IC50: 0.46 µg/mL (≈ 2.04 µM)

## Cc1cn([C@H]2C[C@H](O)[C@@H](CO)O2)c(=O)[nH]c1=O [thymidine]
[14]
  Km: 0.001 mM
  rel. Vmax, Vero cell thymidine kinase: 1.0 × 10^2

## Nc1ncnc2c1ncn2COCCO [Compound 1, 9-[(2-Hydroxyethoxy)methyl]adenine, reference compound]
[1]
  IC50 TK+VZV (YS): 7.0 µg/mL (≈ 33.5 µM)
[2]
  IC50: 4.8 µg/mL (≈ 22.9 µM)
[3]
  Vero cell, concentration causing microscopically visible change or disruption in about 50% of the cell sheet: 209 µg/mL
[17]
  ADA substrate / inhibitor property in words: functioned as ADA substrates
  type of ADA inhibition in words: competitive inhibition
  rel. Vmax: 1.48 × 10^−2
  Ki: 141 µM
[5]
  solubility at 20 h: 2560 µg/mL (≈ 12200 µM)
[14]
  Km: > 30 mM
  rel. Vmax, Vero cell thymidine kinase: <3.0
[8]
  IC50: 9 µg/mL (≈ 43 µM)
[9]
  HeLa cell, concentration causing microscopically visible change or disruption in about 50% of the cell sheet: 196 µg/mL
[11]
  logP at […]: 0.98
[15]
  rel. Vmax, HSV thymidine kinase: <3.0
[15]; [25]
  effect on the rate of phosphorylation of acyclovir 2 in words: did not induce any increase
[12]
  IC50: 4.5 µg/mL (≈ 21.5 µM)

## Nc1ncnc2ncn(COCCO)c12 [Compound 14, 7-[(2-Hydroxyethoxy)methyl]adenine]
[1]
  IC50 TK+VZV (YS): 1.1 µg/mL (≈ 5.26 µM)
[2]
  IC50: 1 µg/mL (≈ 4.78 µM)
[3]
  Vero cell, concentration causing microscopically visible change or disruption in about 50% of the cell sheet: 496 µg/mL
[17]
  ADA substrate / inhibitor property in words: functioned as ADA substrates
  type of ADA inhibition in words: competitive inhibition
  rel. Vmax: 1.50 × 10^−6
  Ki: 8.3 µM
[5]
  solubility at 20 h: 4710 µg/mL (≈ 22500 µM)
[14]
  Km: > 30 mM
  rel. Vmax, Vero cell thymidine kinase: <3.0
[8]
  IC50: 0.97 µg/mL (≈ 4.64 µM)
[9]
  HeLa cell, concentration causing microscopically visible change or disruption in about 50% of the cell sheet: 472 µg/mL
[18]; NMRI, mouse, in vivo, ip
  LD50: 950 mg/kg
[18]; mice, intraperitoneal
  level up to which no toxicity was shown: 400 mg/kg
[11]
  logP at […]: 1.24
[15]
  rel. Vmax, HSV thymidine kinase: <3.0
[15]; [25]
  increase on the rate of phosphorylation of acyclovir 2 by HSV thymidine kinase: 2 fold
[16]; 100 mg/kg/day i.p.
  mean day of animal death: 19.8 ± 1.7 days
  mean day of symptom initiation: 17.5 ± 2.1 days
[16]
  protection against HSV-induced mortality: full protection
[16]; 150 mg/kg/day i.p.
  mean day of animal death: >21 days
  mean day of symptom initiation: 19.9 ± 1.3 days
[16]; 250 mg/kg/day i.p.
  mean day of animal death: >21 days
  mean day of symptom initiation: >21 days
[16]; [19]
  responders at 100 mg/kg: 95%
[16]; [20]
  responders at 100 mg/kg: 80%
[16]; [21]
  responders at 150 mg/kg: 100%
[16]; [22]
  responders at 150 mg/kg: 88%
[16]; [23]
  responders at 250 mg/kg: 100%
[16]; [24]
  responders at 250 mg/kg: 100%
[12]
  IC50: 0.58 µg/mL (≈ 2.77 µM)

## Nc1nc2ncn(COCCO)c2c(=O)[nH]1 [Compound 9, 7-[(2-Hydroxyethoxy)methyl]guanine]
[1]
  IC50 TK+VZV (YS): 13 µg/mL (≈ 57.7 µM)
[2]
  IC50: 16 µg/mL (≈ 71 µM)
[3]
  Vero cell, concentration causing microscopically visible change or disruption in about 50% of the cell sheet: 99 µg/mL
[5]
  solubility at 20 h: 320 µg/mL (≈ 1420 µM)
[14]
  Km: 0.0183 mM
  rel. Vmax, Vero cell thymidine kinase: 12.0
[8]
  IC50: 38 µg/mL (≈ 169 µM)
[9]
  HeLa cell, concentration causing microscopically visible change or disruption in about 50% of the cell sheet: 114 µg/mL
[11]
  logP at […]: -0.6
[15]
  rel. Vmax, HSV thymidine kinase: 28.0
[16]; 100 mg/kg/day i.p.
  mean day of animal death: 14.1 ± 0.8 days
  mean day of symptom initiation: 10.9 ± 0.6 days
[16]; 150 mg/kg/day i.p.
  mean day of animal death: 16.0 ± 1.5 days
  mean day of symptom initiation: 13.0 ± 1.1 days
[16]; 250 mg/kg/day i.p.
  mean day of animal death: 18.5 ± 1.0 days
  mean day of symptom initiation: 15.1 ± 1.2 days
[16]; [19]
  responders at 100 mg/kg: 66%
[16]; [20]
  responders at 100 mg/kg: 48%
[16]; [21]
  responders at 150 mg/kg: 78%
[16]; [22]
  responders at 150 mg/kg: 57%
[16]; [23]
  responders at 250 mg/kg: 90%
[16]; [24]
  responders at 250 mg/kg: 67%
[12]
  IC50: 1.1 µg/mL (≈ 4.88 µM)
